System: SW 1271 complex spheroids, viability
Test: Anticancer human tumor SW 1271 cell line growth inhibition [LSD1];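 further: spheroids exposed to agents for 7 days before luminescence read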;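 on viability, T/C: 100% = DMSO vehicle control viability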
Settings: for IC50: curve of first compound; for viability, T/C: stronger effect = lower value
Procedure, shortened: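 Multicellular complex spheroids of tumor cells with human endothelial cells (HUVEC) and mesenchymal stem cells; the LSD1 inhibitor iadademstat was combined with standard-of-care or investigational agents. Top concentration at or near clinical Cmax, half-log dilutions; final DMSO ≤0.25%.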

[1] = second compound 0.1 µM, first compound 0.0316 µM
[2] = second compound 0.1 µM, first compound 0.1 µM
[3] = second compound 0.1 µM, first compound 0.316 µM
[4] = second compound 0.1 µM, first compound 1 µM
[5] = second compound 0.1 µM, first compound 3.16 µM
[6] = second compound 0.1 µM, first compound 10 µM
[7] = second compound 0.316 µM, first compound 0.0316 µM
[8] = second compound 0.316 µM, first compound 0.1 µM
[9] = second compound 0.316 µM, first compound 0.316 µM
[10] = second compound 0.316 µM, first compound 1 µM
[11] = second compound 0.316 µM, first compound 3.16 µM
[12] = second compound 0.316 µM, first compound 10 µM
[13] = second compound 1 µM, first compound 0.0316 µM
[14] = second compound 1 µM, first compound 0.1 µM
[15] = second compound 1 µM, first compound 0.316 µM
[16] = second compound 1 µM, first compound 1 µM
[17] = second compound 1 µM, first compound 3.16 µM
[18] = second compound 1 µM, first compound 10 µM
[19] = second compound 3.16 µM, first compound 0.0316 µM
[20] = second compound 3.16 µM, first compound 0.1 µM
[21] = second compound 3.16 µM, first compound 0.316 µM
[22] = second compound 3.16 µM, first compound 1 µM
[23] = second compound 3.16 µM, first compound 3.16 µM
[24] = second compound 3.16 µM, first compound 10 µM
[25] = second compound 10 µM, first compound 0.0316 µM
[26] = second compound 10 µM, first compound 0.1 µM
[27] = second compound 10 µM, first compound 0.316 µM
[28] = second compound 10 µM, first compound 1 µM
[29] = second compound 10 µM, first compound 3.16 µM
[30] = second compound 10 µM, first compound 10 µM
[31] = second compound 0.1 µM, first compound 0.00316 µM
[32] = second compound 0.1 µM, first compound 0.01 µM
[33] = second compound 0.316 µM, first compound 0.00316 µM
[34] = second compound 0.316 µM, first compound 0.01 µM
[35] = second compound 1 µM, first compound 0.00316 µM
[36] = second compound 1 µM, first compound 0.01 µM
[37] = second compound 3.16 µM, first compound 0.00316 µM
[38] = second compound 3.16 µM, first compound 0.01 µM
[39] = second compound 10 µM, first compound 0.00316 µM
[40] = second compound 10 µM, first compound 0.01 µM

SMILES | IC50 (second compound 0.1 µM) | IC50 (second compound 0.316 µM) | IC50 (second compound 1 µM) | IC50 (second compound 3.16 µM) | IC50 (second compound 10 µM) | viability, T/C [1] | viability, T/C [2] | viability, T/C [3] | viability, T/C [4] | viability, T/C [7] | viability, T/C [8] | viability, T/C [9] | viability, T/C [10] | viability, T/C [13] | viability, T/C [14] | viability, T/C [15] | viability, T/C [16] | viability, T/C [19] | viability, T/C [20] | viability, T/C [21] | also measured
CC(C)c1c(-c2ccccc2)nc2c(C#N)c[nH]n2c1=O + NC1CCC(NC2CC2c2ccccc2)CC1 | > 10000 nM | > 10000 nM | > 10000 nM | > 10000 nM | > 10000 nM | 85.7% | 80.3% | 79.1% | 82.8% | 75.2% | 89.2% | 77.9% | 74.2% | 74.1% | 74.8% | 75.5% | 80.1% | 76.6% | 73.1% | 71.5% | viability, T/C [5]: 71.1%; viability, T/C [6]: 69.4%; viability, T/C [11]: 68.9%; viability, T/C [12]: 54.7%; viability, T/C [17]: 68.8%; viability, T/C [18]: 59.4%; viability, T/C [22]: 68.8%; viability, T/C [23]: 71.9%; viability, T/C [24]: 64.2%; viability, T/C [25]: 66.7%; viability, T/C [26]: 60.5%; viability, T/C [27]: 70.1%; viability, T/C [28]: 65.5%; viability, T/C [29]: 65.8%; viability, T/C [30]: 46.5%
CC1COCCN1c1cc(-c2ccnn2C)c2ccnc(-c3ccn[nH]3)c2n1 (stereo not given) + NC1CCC(NC2CC2c2ccccc2)CC1 | 59.5 nM | 103 nM | 55.3 nM | 55.4 nM | 47.3 nM | 56.3% | 42.7% | 42.2% | 29.8% | 58.2% | 42.7% | 48.8% | 28.6% | 56.2% | 39.6% | 44.3% | 30.3% | 55.8% | 44.8% | 42% | viability, T/C [31]: 59.3%; viability, T/C [32]: 76.7%; viability, T/C [33]: 71.4%; viability, T/C [34]: 71.2%; viability, T/C [35]: 68.5%; viability, T/C [36]: 62%; viability, T/C [37]: 68.4%; viability, T/C [38]: 56.4%; viability, T/C [22]: 31.4%; viability, T/C [39]: 78.1%; viability, T/C [40]: 66.9%; viability, T/C [25]: 53.1%; viability, T/C [26]: 41.8%; viability, T/C [27]: 38.5%; viability, T/C [28]: 29.9%
COc1ccc([C@@H](O)c2cc(-c3ncnc4cc(N5CCOCC5)ccc34)c(F)cc2Cl)nn1 + NC1CCC(NC2CC2c2ccccc2)CC1 | 811 nM | 542 nM | 608 nM | 836 nM | 436 nM | 92% | 84.7% | 62.1% | 49.4% | 82.1% | 70.6% | 58.2% | 40.8% | 75% | 65.3% | 65.2% | 38.7% | 68% | 65.2% | 66.2% | viability, T/C [5]: 29.2%; viability, T/C [6]: 21%; viability, T/C [11]: 30.3%; viability, T/C [12]: 21.4%; viability, T/C [17]: 27.5%; viability, T/C [18]: 21.6%; viability, T/C [22]: 46.3%; viability, T/C [23]: 25.5%; viability, T/C [24]: 16.7%; viability, T/C [25]: 89.4%; viability, T/C [26]: 60%; viability, T/C [27]: 50.4%; viability, T/C [28]: 49%; viability, T/C [29]: 26.6%; viability, T/C [30]: 14.9%
O=C(C=Cn1cnc(-c2cc(C(F)(F)F)cc(C(F)(F)F)c2)n1)NNc1cnccn1 + NC1CCC(NC2CC2c2ccccc2)CC1 | 135 nM | 189 nM | 229 nM | 215 nM | 203 nM | 72.9% | 50.2% | 42.8% | 24.6% | 81.3% | 53.5% | 46% | 27.4% | 88.9% | 62.4% | 47% | 18.5% | 92.1% | 54.3% | 48.3% | viability, T/C [31]: 86.6%; viability, T/C [32]: 91.2%; viability, T/C [33]: 84.5%; viability, T/C [34]: 77.3%; viability, T/C [35]: 90.5%; viability, T/C [36]: 101%; viability, T/C [37]: 81.9%; viability, T/C [38]: 79.3%; viability, T/C [22]: 23.7%; viability, T/C [39]: 87.5%; viability, T/C [40]: 86.6%; viability, T/C [25]: 79.1%; viability, T/C [26]: 59%; viability, T/C [27]: 44.8%; viability, T/C [28]: 29.5%
